The target in data set [1] is T1, BRD4_2 (Homo sapiens, UniProt O60885).
T1 construct: contains two tandem bromodomains (BrD1 and BrD2)
Description: Fluorescence anisotropy binding assay (competition with FITC-labeled MS417 probe), BRD4_2. The settings on record: FITC-MS417 probe 80 nM, PBS pH 7.4, 1 hour, 25° C. On the technique in general: Polarisation of emitted light reports the rotation of a fluorescent probe.

The target of data set [2] is T2, first bromodomain (BrD1) of human BRD4 (Homo sapiens, UniProt O60885).
T2 construct: the first bromodomain (BrD1) of human BRD4; poly-His (cleaved yes); made in house
As to the kind of experiment: Fluorescence anisotropy binding assay (competition with FITC-labeled MS417 probe). The settings on record: FITC-MS417 probe 80 nM, PBS pH 7.4, 1 hour, 25° C., read-out: BRD4_1 IC50. The procedure, abridged: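 Competitive fluorescence anisotropy in PBS pH 7.4: 80 nM FITC-MS417 probe, 0.25 to 1 μM tag-cleaved BrD1, titrated unlabeled ligand, 1 hour at 25° C. IC50 values were fitted and converted to Ki using a corrected Cheng-Prusoff equation assuming one-site competition.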

For 45 compounds, melting point and IC50 results are on record in patent US9884806B2, “Cyclic vinylogous amides as bromodomain inhibitors” (ICAHN SCHOOL OF MEDICINE AT MOUNT SINAI, priority 2013, dated 2018).

What is called melting point is the temperature, or range, at which the solid turns liquid. For `CC1=C(Nc2cccc(Br)c2)CCC1=O`, the melting point lay in the range of 291 to 294 °C.

In turn, `COc1c(NC2=C(C)C(=O)CC2)cccc1C(=O)O` gave a melting point of 220 to 223 °C.

In turn, `CC1=C(Nc2cc(Cl)c(C(=O)O)cc2Cl)CCC1=O` returned a melting point of 229 to 232 °C.

Turning to `CC1=C(Nc2cc(C(=O)O)ccc2C(F)(F)F)CCCC1=O`, the melting point was 209 to 212 °C.

`CC1=C(NC2(C(F)(F)F)C=CC(C(=O)O)=CC2)CCCC1=O` (centres unmarked) registered a melting point of 229 to 231 °C.

The compound `CC1=C(Nc2ccc(S(N)(=O)=O)cc2)CCC1=O` (hydrate or solvate) [Example 01-06, 4-((2-methyl-3-oxocyclopent-1-en-1-yl)amino)benzenesulfonamide] had a melting point of 245 to 247 °C.

`CC1=C(Nc2ccc(C#N)cc2)CCC1=O` (hydrate or solvate) [Example 01-07, 4-((2-methyl-3-oxocyclopent-1-en-1-yl)amino)benzonitrile] registered a melting point of 204 to 206 °C.

In the case of `CC1=C(Nc2ccc(S(=O)(=O)Nc3ccccn3)cc2)CCC1=O` (hydrate or solvate) [Example 01-31, 4-((2-methyl-3-oxocyclopent-1-en-1-yl)amino)-N-(pyridin-2-yl)benzenesulfonamide], the melting point fell in the range of 230 to 233 °C.

In turn, `CC1=C(NC2CCN(C(=O)OC(C)(C)C)CC2)CCC1=O` (hydrate or solvate) [Example 01-32, tert-Butyl 4-((2-methyl-3-oxocyclopent-1-en-1-yl)amino)piperidine-1-carboxylate] had a melting point of 189 to 191 °C.

The compound `CC1=C(N[C@H]2CC[C@H](C(=O)O)CC2)CCC1=O` (hydrate or solvate) [Example 01-33, trans-(1R,4R)-4-((2-methyl-3-oxocyclopent-1-en-1-yl)amino)cyclo6hexane-carboxylic acid] gave a melting point of 236 to 238 °C.

As for `CC1=C(N[C@H]2CC[C@@H](C(=O)O)CC2)CCC1=O` (hydrate or solvate) [Example 01-34, cis-(1S,4S)-4-((2-methyl-3-oxocyclopent-1-en-1-yl)amino)cyclohexanecarboxylic acid], the melting point was in the range of 233 to 235 °C.

With `CC1=C(Nc2cccc(S(N)(=O)=O)c2)CCC1=O` (hydrate or solvate) [Example 01-45, 3((2-methyl-3-oxocyclopent-1-en-1-yl)amino)benzenesulfonamide], the melting point is 223 to 225 °C.

For the compound `CC1=C(Nc2cc(S(N)(=O)=O)ccc2Cl)CCC1=O` (hydrate or solvate) [Example 01-46, 4-chloro-3-((2-methyl-3-oxocyclopent-1-en-1-yl)amino)benzene-sulfonamide], the melting point was in the range of 223 to 225 °C.

`CC1=C(Nc2cccc(C(=O)O)c2)CCC1=O` [Example 01-03, 3((2-methyl-3-oxocyclopent-1-en-1-yl)amino)benzoic acid] showed a melting point of 236 to 238 °C.

`COC(=O)c1cccc(NC2=C(C)C(=O)CC2)c1` [Example 01-04, methyl 3-((2-methyl-3-oxocyclopent-1-en-1-yl)amino)benzoate]: the melting point fell in the range of 133 to 135 °C.

Compound `CC(=O)c1ccc(NC2=C(C)C(=O)CC2)cc1` [Example 01-09, 3-((4-acetylphenyl)amino)-2-methylcyclopent-2-enone] yielded a melting point of 270 to 273 °C.

What is called IC50 is the concentration that inhibits the measured activity by half. `CC1=C(Nc2ccc(C(=O)O)c(Cl)c2)CCC1=O` [Example 01-10, 2-chloro-4((2-methyl-3-oxocyclopent-1-en-1-yl)amino)benzoic acid]: the melting point was 239 to 241 °C. The same compound yielded a half-maximal inhibitory concentration (IC50) in data set [1] of more than 10 µM. Moreover, the half-inhibitory concentration (IC50) in data set [2] was more than 10 µM.

In turn, `CC1=C(Nc2ccc(CC(=O)O)cc2)CCCC1=O` [Example 01-38, 2-(4((2-methyl-3-oxocyclohex-1-en-1-yl)amino)phenyl)acetic acid] returned a melting point of 215 to 219 °C.

The compound `CC(=O)Nc1ccc(Cl)c(NC2=C(C)C(=O)CCC2)c1` [Example 01-47, N-(4-chloro-3-((2-methyl-3-oxocyclohex-1-en-1-yl)amino)phenyl)-acetamide] yielded a melting point of 234 to 236 °C.

For the compound `CC1=C(Nc2ccc(C(=O)O)cc2)CCC1=O` [Example 02-01, 4((2-methyl-3-oxocyclopent-1-en-1-yl)amino)benzoic acid], the melting point lay within 228 to 230 °C.

In turn, `CC1=C(Nc2ccc(C(=O)O)cc2Cl)CCC1=O` [Example 02-02, 3-chloro-4((2-methyl-3-oxocyclopent-1-en-1-yl)amino)benzoic acid] came in with a melting point of 226 to 230 °C.

Regarding `COc1cc(NC2=C(C)C(=O)CC2)ccc1C(=O)O` [Example 02-03, 2-methoxy-4((2-methyl-3-oxocyclopent-1-en-1-yl)amino)benzoic acid], the melting point was in the range of 240 to 243 °C.

The compound `CC1=C(Nc2ccccc2C(=O)O)CCC1=O` [Example 02-04, 2-((2-methyl-3-oxocyclopent-1-en-1-yl)amino)benzoic acid] returned a melting point of 245 to 248 °C.

The compound `CC1=C(Nc2ccc(Cl)cc2C(=O)O)CCC1=O` [Example 02-05, 5-chloro-2-((2-methyl-3-oxocyclopent-1-en-1-yl)amino)benzoic acid] registered a melting point of 242 to 245 °C.

With `CC1=C(Nc2ccc(C(=O)O)cc2F)CCC1=O` [Example 02-06, 3-fluoro-4((2-methyl-3-oxocyclopent-1-en-1-yl)amino)benzoic acid], the melting point lay within 210 to 213 °C.

As for `CC1=C(Nc2ccc(C(=O)O)cc2Br)CCC1=O` [Example 02-07, 3-bromo-4-((2-methyl-3-oxocyclopent-1-en-1-yl)amino)benzoic acid], the melting point fell in the range of 246 to 248 °C.

In turn, `CC1=C(Nc2ccc(C(=O)O)cc2I)CCC1=O` [Example 02-08, 3-iodo-4-((2-methyl-3-oxocyclopent-1-en-1-yl)amino)benzoic acid] showed a melting point of 263 to 264 °C.

Turning to `CC1=C(Nc2cccc(NS(=O)(=O)C3CCCCC3)c2Cl)CCCC1=O` [Example 05-71, N-(2-chloro-3-((2-methyl-3-oxocyclohex-1-en-1-yl)amino)phenyl)-cyclohexanesulfonamide], the IC50 in data set [1] is 1 to 10 µM; in data set [2] it was less than 1 µM.

`CC1=C(Nc2cccc(Nc3ccccc3C)c2Cl)CCCC1=O` [Example 05-80, 3-((2-chloro-3-(o-tolylamino)phenyl)amino)-2-methylcyclohex-2-enone]: the IC50 in data set [1] was 1 to 10 µM; in data set [2] it was less than 1 µM.

Regarding `CC1=C(Nc2cccc(NC(=O)/C=C\C(=O)O)c2Cl)CCCC1=O` [Example 05-85, (Z)-4-((2-chloro-3-((2-methyl-3-oxocyclohex-1-en-1-yl)amino)phenyl)-amino)-4-oxobut-2-enoic acid], the figures for the IC50 in data set [1] and in data set [2] were more than 10 µM and less than 1 µM, respectively.

Consider `CC1=C(Nc2cccc(-c3cn(Cc4ccccc4C)nn3)c2)CCC1=O` [Example 06-10, 2-methyl-3-((3-(1-(2-methylbenzyl)-1H-1,2,3-triazol-4-yl)phenyl)amino)cyclopent-2-enone], for which the half-maximal inhibitory concentration (IC50) is 1 to 10 µM in data set [1] and less than 1 µM in data set [2].

Turning to `COc1ccc(Cn2cc(-c3cccc(NC4=C(C)C(=O)CC4)c3)nn2)cc1` [Example 06-15, 3-((3-(1-(4-methoxybenzyl)-1H-1,2,3-triazol-4-yl)phenyl)amino)-2-methylcyclopent-2-enone], the figures for the IC50 in data set [1] and in data set [2] were 1 to 10 µM and less than 1 µM, respectively.

With `CC1=C(Nc2ccc(-c3cn(Cc4ccccc4)nn3)cc2)CCC1=O` [Example 06-28], the IC50 is 1 to 10 µM in data set [1] and less than 1 µM in data set [2].

As to `CC1=C(Nc2ccc(C(=O)O)cc2)CCC1=O` [Examples 02-1], the values for the IC50 in data set [1] and in data set [2] were more than 10 µM and 1 to 10 µM, respectively.

As for `CC1=C(Nc2ccc(C(=O)O)cc2Cl)CCC1=O` [Examples 02-2], the 50% inhibitory concentration (IC50) in data set [1] and in data set [2] was 1 to 10 µM each time.

For the compound `COc1cc(NC2=C(C)C(=O)CC2)ccc1C(=O)O` [Examples 02-3], the IC50 in data set [1] and in data set [2] was more than 10 µM each time.

Turning to `CC1=C(Nc2ccccc2C(=O)O)CCC1=O` [Examples 02-4], the half-inhibitory concentration (IC50) in data set [1] and in data set [2] was more than 10 µM in each case.

`CC1=C(Nc2ccc(Cl)cc2C(=O)O)CCC1=O` [Examples 02-5]: the IC50 in data set [1] and in data set [2] was more than 10 µM throughout.

As to `CC1=C(Nc2ccc(C(=O)O)cc2F)CCC1=O` [Examples 02-6], the values for the IC50 in data set [1] and in data set [2] were more than 10 µM and 1 to 10 µM, respectively.

On to `CC1=C(Nc2ccc(C(=O)O)cc2Br)CCC1=O` [Examples 02-7], for which the values for the IC50 in data set [1] and in data set [2] were more than 10 µM and 1 to 10 µM, respectively.

As for `CC1=C(Nc2ccc(C(=O)O)cc2I)CCC1=O` [Examples 02-8], the half-inhibitory concentration (IC50) in data set [1] and in data set [2] was 1 to 10 µM throughout.

Consider `COC(=O)c1ccc(Br)c(NC2=C(C)C(=O)CCC2)c1` [Examples 02-9], for which the 50% inhibitory concentration (IC50) in data set [1] and in data set [2] was more than 10 µM each time.

Regarding `C#Cc1cccc(NC2=C(C)C(=O)CC2)c1` [Examples 06-1], the IC50 in data set [1] was more than 10 µM; in data set [2], 1 to 10 µM.

As for `CC1=C(Nc2cccc(-c3cn(-c4ccccc4)nn3)c2)CCC1=O` [Examples 06-2, 2-methyl-3-((3-(1-phenyl-1H-1,2,3-triazol-4-yl)phenyl)amino)cyclopent-2-enone], the IC50 in data set [1] and in data set [2] was 1 to 10 µM throughout.

Take `CC1=C(Nc2cccc(-c3cn(Cc4ccccc4F)nn3)c2)CCC1=O` [Examples 06-8]: the IC50 in data set [1] was 1 to 10 µM; in data set [2] it was less than 1 µM.
